Assay [1] relates to Bak−/− single knockout MEFs. Kind of assay: MEF cell death, propidium iodide flow cytometry. The class given is cell-based, mouse. Particulars: increasing concentrations, 15 h. How it is done:
(§1) MEF cells, including wild-type, Bax/Bak double knockout, Bax−/− single knockout, and Bak−/− single knockout were tested and characterized (Supplementary Fig. S3). The cells were cultured in DMEM (Life Technologies), supplemented with 10% fetal bovine serum (FBS) (Thermo Scientific HyClone) and 1% Penicillin/streptomycin solution (Life Technologies). The retrovirally transduced lymphoma cells isolated from Eμ-myc transgenic mice were provided by Ricky W. Johnstone at the University of Melbourne, Melbourne, Australia and cultured as previously described[37],[65].
(§2) MEFs were seeded in 24-well plates at 0.5 × 10^5 cells/well, left to adhere for 5 hours and then treated for 15 hours with increasing concentrations of the compounds. The cells were harvested, washed with phosphate-buffered saline (PBS) and stained with 0.025 mg/ml propidium iodide (MP Biomedicals). The percentage of the propidium iodide positive population was determined by flow cytometry and calculated using WinList 3.0.
Background: Flow cytometry measures light scatter and fluorescence of single cells or particles in a stream.

Assay [2] relates to Bax−/− single knockout MEFs. Put plainly: MEF cell death, propidium iodide flow cytometry. The class given is cell-based, mouse. Particulars: increasing concentrations, 15 h. How it is done: as §1, §2

Turning to `O=C(CSc1nnc(-c2ccco2)c(-c2ccco2)n1)Nc1cccc(C(F)(F)F)c1` [Compound 39], the “cell death in Bak−/− MEFs” value in assay [1] is listed as “rescued the cells”. Moreover, in assay [2], the “cell death in Bax−/− MEFs” value was “rescued the cells”.

(Values after paper PMC6033896, “Discovery of Mcl-1 inhibitors from integrated high throughput and virtual screening” (Scientific Reports, 2018).)
